Counter-ions that a name gives are not always drawn.
How the values were obtained:
[1] = tested on: recombinant A549 cell line with HRE-controlled luciferase reporter; experiment: Cellular, functional in vitro test: luciferase reporter under hypoxia-responsible elements in recombinant A549 cell line; type: cell-based; conditions: Homo sapiens, luciferase light signal six to 24 hours after addition of test substance
Text: The activity of the compounds according to the invention is quantified with the aid of a recombinant cell line. The cell is originally derived from a human lung carcinoma cell line (A549, ATCC: American Type Culture Collection, Manassas, Va. 20108, USA). The test cell line is transfected in a stable manner with a vector which contains the reporter gene of Photinus pyralis luciferase (called luciferase in the following) under the control of an artificial minimal promoter. The minimal promoter comprises two hypoxia-responsible elements upstream of a TATA box [Oehme F., Ellinghaus P., Kolkhof P., Smith T. J., Ramakrishnan S., Hütter J., Schramm M., Flamme I., Biochem. Biophys. Res. Commun. 296 (2), 343-9 (2002)]. Under the effect of hypoxia (e.g. culturing in the presence of 1% oxygen for 24 hours) or under the action of non-selective dioxygenase inhibitors (e.g. desferroxamine in a concentration of 100 μM, cobalt chloride in a concentration of 100 μM or N-oxalylglycine diethyl ester in a concentration of 1 mM), the test cell line produces luciferase, which can be detected and quantified with the aid of suitable bioluminescence reagents (e.g. Steady-Glo® Luciferase Assay System, Promega Corporation, Madison, Wis. 53711, USA) and a suitable luminometer.
Test Procedure: On the day before the test, the cells are plated out in an exactly calculated amount of culture medium (DMEM, 10% FCS, 2 mM glutamine) in 384- or 1,536-well microtiter plates and kept in a cell incubator (96% atmospheric humidity, 5% v/v CO2, 37° C.). On the test day, the test substances are added to the culture medium in graduated concentrations. No test substance is added to the cells in batches serving as negative controls. As a positive control for determination of the sensitivity of the cell to inhibitors, desferroxamine e.g. is added in a final concentration of 100 μM. Six to 24 hours after transfer of the test substances into the wells of the microtiter plate, the resulting light signal is measured in the luminometer. A dose/effect relationship is plotted with the aid of the measurement values, which serves as the basis for determining the half-maximum active concentration (call the EC50 value in the following).

HIF prolyl hydroxylase = experiment: Inhibition of the activity of HIF prolyl hydroxylase (VBC complex binding to hydroxylated peptide substrate); type: biochemical; conditions: cell lysate containing prolyl hydroxylase, biotin-DLDLEMLAPYIPMDDDFQL peptide substrate
Method: Hydroxylated HIF bonds specifically to the von Hippel-Lindau protein-elongin B-elongin C complex (VBC complex). This interaction occurs only if HIF is hydroxylated on a conserved prolyl radical. It is the basis for the biochemical determination of HIF prolyl hydroxylase activity. The test is carried out as described [Oehme F., Jonghaus W., Narouz-Ott L., Huetter J., Flamme I., Anal. Biochem. 330 (1), 74-80 (2004)]:
A clear 96-well microtiter plate coated with NeutrAvidin HBC (Pierce) is incubated with blocker casein for 30 minutes. The plate is then washed three times with 200 μl each time of wash buffer (50 mM Tris, pH 7.5, 100 mM NaCl, 10% (v/v) blocker casein, 0.05% (v/v) Tween 20) per well. The peptide biotin-DLDLEMLAPYIPMDDDFQL (Eurogentec, 4102 Seraing, Belgium) is added in a concentration of 400 nM in 100 μl wash buffer. This peptide serves as a substrate for the prolyl hydroxylation and is bonded to the microtiter plate. After incubation for 30 minutes, the plate is washed three times with wash buffer, incubated with 1 mM biotin in blocker casein for 30 minutes and then washed again three times with wash buffer.
To carry out the prolyl hydroxylase reaction, the peptide substrate bonded to the plate is incubated with a cell lysate containing prolyl hydroxylase for 1 to 60 minutes. The reaction takes place in 100 μl reaction buffer (20 mM Tris, pH 7.5, 5 mM KCl, 1.5 mM MgCl2, 1 μM-1 mM 2-oxoglutarate, 10 μM FeSO4, 2 mM ascorbate) at room temperature. The reaction mixture moreover contains various concentrations of the prolyl hydroxylase inhibitor to be tested. The test substance is preferably, but not exclusively, employed at concentrations of between 1 nM and 100 μM. The reaction is stopped by washing the plate three times with wash buffer.
For quantitative determination of the prolyl hydroxylation, a fusion protein which contains both thioredoxin from E. coli and the VBC complex is added in 80 μl bonding buffer (50 mM Tris, pH 7.5, 120 mM NaCl). After 15 minutes, 10 μl of a solution of polyclonal anti-thioredoxin antibodies from rabbit in bonding buffer are added. After a further 30 minutes, 10 μl of a solution of anti-rabbit immunoglobulin coupled to horseradish peroxidase in bonding buffer are added. After incubation at room temperature for 30 minutes, the plate is washed three times with wash buffer in order to remove non-bonded VBC complex and antibodies. To determine the amount of bonded VBC complex, the plate is incubated with TMB for 15 minutes. The color reaction is ended by addition of 100 μl 1 M sulfuric acid. The amount of bonded VBC complex is determined by measurement of the optical density at 450 nm. It is proportional to the amount of hydroxylated proline in the peptide substrate.
Alternatively, a VBC complex coupled to europium (Perkin Elmer) can be used for detection of the prolyl hydroxylation. In this case, the amount of bonded VBC complex is determined by the fluorescence with respect to time. The use of VBC complex labeled with [^35S]-methionine is moreover possible. For this, the radioactively labeled VBC complex can be prepared by in vitro transcription-translation in reticulocyte lysate.

| SMILES | EC50 [1] [µM] | IC50 (HIF prolyl hydroxylase) [µM] |
| --- | --- | --- |
| Cc1ccnc(-n2[nH]cc(-c3ccc(C#N)nc3)c2=O)c1 [Example 34, 4-(6-Cyanopyridin-3-yl)-2-(4-methylpyridin-2-yl)-1,2-dihydro-3H-pyrazol-3-one hydrochloride] | 4.7 | 0.18 |
| O=C(CCn1cc(Cl)cn1)NCc1ccnc(-n2[nH]cc(-c3cccnc3)c2=O)c1 [Example 50, 3-(4-Chloro-1H-pyrazol-1-yl)-N-{[2-(5-oxo-4-pyridin-3-yl-2,5-dihydro-1H-pyrazol-1-yl)pyridin-4-yl]methyl}propanamide] | 7.1 | 1.9 |
| O=c1c(-c2cccnc2)c[nH]n1-c1ccccn1 [Example 6, 2-Pyridin-2-yl-4-pyridin-3-yl-1,2-dihydro-3H-pyrazol-3-one] | 4.9 | 0.43 |
| O=C(Cc1ccccc1)NCc1ccnc(-n2[nH]cc(-c3cccnc3)c2=O)c1 [Example 46, N-{[2-(5-Oxo-4-pyridin-3-yl-2,5-dihydro-1H-pyrazol-1-yl)pyridin-4-yl]methyl}-2-phenylacetamide hydrochloride] | 7.4 | 0.7 |
| O=c1c(-c2cccnc2)c[nH]n1-c1ccc(CO)cn1 [Example 23, 2-(5-Hydroxymethyl-pyridin-2-yl)-4-pyridin-3-yl-1,2-dihydro-3H-pyrazol-3-one hydrochloride] | 13.4 | 0.86 |
| NCc1ccnc(-n2[nH]cc(-c3cccnc3)c2=O)c1 [Example 35, 2-[4-(Aminomethyl)pyridin-2-yl]-4-pyridin-3-yl-1,2-dihydro-3H-pyrazol-3-one dihydrochloride] | 17.2 | 2.3 |
| CC(=O)NCc1ccnc(-n2[nH]cc(-c3cccnc3)c2=O)c1 [Example 47, N-{[2-(5-Oxo-4-pyridin-3-yl-2,5-dihydro-1H-pyrazol-1-yl)pyridin-4-yl]methyl}acetamide hydrochloride] | 12.4 | 2.2 |
| Cc1ncccc1-c1c[nH]n(-c2ccccn2)c1=O [Example 26] | 6 | 0.76 |
| O=c1c(-c2cccnc2)c[nH]n1-c1cc(CO)ccn1 [Example 43, 2-[4-(Hydroxymethyl)pyridin-2-yl]-4-pyridin-3-yl-1,2-dihydro-3H-pyrazol-3-one hydrochloride] | 7.6 | 1.5 |
| O=C(NCc1ccnc(-n2[nH]cc(-c3cccnc3)c2=O)c1)c1ccccc1 [Example 48, N-{[2-(5-Oxo-4-pyridin-3-yl-2,5-dihydro-1H-pyrazol-1-yl)pyridin-4-yl]methyl}benzamide hydrochloride] | 18.9 | 1.9 |
